Where “and” joins values, the source holds several entries; their conditions need not be identical. Equal entries are not always repeated. Where two headings read alike, the source gives them in different places.
Assays:
Format in all cases: cell-based, Mycobacterium tuberculosis
[1] = test system: CDC1551(rv2390c′::GFP) reporter Mtb strain, response to high [Cl−]; assay: microbe, parasite or virus in culture; details: for activity at 10 µM / activity at 20 µM / IC50: Mycobacterium tuberculosis; for activity at 10 µM / activity at 20 µM: 144 h; for activity at 20 µM: read-out: rv2390c'::GFP validation assay NPA% at 20 µM compound; for IC50: read-out: ShuminTan.MtbChloride.Validation: IC50; for ShuminTan.MtbChloride.Primary: NPI%: primary screen, Sheet2
[2] = test system: CDC1551(rv1405c′::GFP) reporter Mtb strain; assay: microbe, parasite or virus in culture; details: for IC50 / activity at 10 µM / activity at 20 µM: Mycobacterium tuberculosis; for IC50: read-out: ShuminTan.MtbChloride.Secondary: IC50; for activity at 10 µM: read-out: rv1405c'::GFP secondary assay NPA% at 10 µM compound; for activity at 20 µM: read-out: rv1405c'::GFP secondary assay NPA% at 20 µM compound
[3] = test system: Mtb growth in J774 murine macrophage-like cells; assay: microbe, parasite or virus in culture; details: Mycobacterium tuberculosis; for IC50: J774 dose response 0.039-20 µM, read-out: ShuminTan.Mtb.Validation.Macrophage: IC50; for inhibition at 10 µM: read-out: J774 tertiary assay % inhibition compared to Rif at 10 µM compound
[4] = test system: Mtb growth in J774 macrophage-like cells; assay: J774 infection in 96-well plates, mKO fluorescence 6 days post-infection; details: for % Growth: Fig. 2D, DMSO = 100
Procedure: For J774 infection in 96-well plates, 1.8 × 10^5 J774 cells were seeded per well in 180 μl of J774 infection media 1 day prior to infection. On the day of the assay, log-phase Mtb constitutively expressing mKO were pelleted and resuspended in 1 ml basal uptake buffer, passed 6× through a tuberculin syringe with a 25 G × 5/8″ needle, then resuspended in J774 infection media to a final OD600 = 0.2. Media was removed from 96-well plate containing the J774 cells, with 140 μl of fresh J774 infection media added back to each well. A volume of 40 μl of the Mtb suspension at OD600 = 0.2 was added to each well, followed by addition of appropriate concentration of compound or DMSO in a 20-μl final volume in J774 infection media (compound final concentration 10 μM, rifampicin final concentration 5 μM, DMSO final concentration 0.1%/well). Bacterial mKO fluorescence was read immediately after infection using a Biotek Synergy Neo2 microplate reader (bottom read monochromator, excitation 543/10 nm, emission 565/10 nm), and again 6 days post-infection. Plates were kept in humidified ziplock bags in a 37°C, 5% CO2 incubator. mKO fluorescence in DMSO-treated control samples were defined as 100% growth, and fluorescence observed in treatment conditions calculated as a percentage from that set value.

[5] = pH 6.4, […], DMSO positive control = 100%, read-out: Primary screen rv2390c'::GFP NPA%
[6] = 10 µM, pH 6.4, 250 mM NaCl, 6 days, read-out: rv2390c'::GFP validation assay NPA% at 10 µM compound
[7] = J774, read-out: %inhibition compared to Rif in J774 at 20 uM
[8] = J774, 144 h, read-out: J774 tertiary assay % inhibition compared to Rif at 20 µM compound

Row | Compound | validation NPI at 10 uM [1] | validation NPI at 20 uM [1] | activity at 10 µM [1, 5] | activity at 10 µM [1, 6] | activity at 20 µM ([1]; pH 6.4, 250 mM NaCl, 6 days) | IC50 [1] | ShuminTan.MtbChloride.Primary: NPI% [1] | rv1405c assay NPI at 10 uM [2] | rv1405c assay NPI at 20 uM [2] | IC50 [2] | activity at 10 µM [2] | activity at 20 µM [2] | inhibition at 20 µM [3, 7] | IC50 [3] | inhibition at 10 µM ([3]; J774, 144 h) | inhibition at 20 µM [3, 8] | % growth of Mtb in J774 cells, average ([4]; 5 μM rifampicin, 6 days post-infection, DMSO = 100%, Fig 1H) | % Growth ([4]; average of 4 replicates) | % Growth ([4]; individual replicates)
1 | Cc1ccc(NS(=O)(=O)c2ccc(C)c(F)c2)c(C(=O)O)c1 [RU-0273440, CC1=CC(C(O)=O)=C(NS(=O)(=O)C2=CC(F)=C(C)C=C2)C=C1] | 60.2 | 37.8 | 49.3% | 60.2 ± 7.2% | 37.7 ± 5.2% | > 20 µM | 49.3142% | 34 | 23.8 | < 0.0391 µM | 33.8 ± 5.6% | 23.3 ± 4.7% | 18.3% | > 20 µM | – | – | – | – | –
2 | N#Cc1nc(NC(=O)c2ccc(N3CCCC3)c(F)c2)[nH]c1C#N [RU-0274370, FC1=C(C=CC(=C1)C(=O)NC1=NC(C#N)=C(N1)C#N)N1CCCC1] | – | – | 227% | 143 ± 10% | 268 ± 20.8% | – | – | – | – | – | 181 ± 7.8% | 363 ± 8.7% | – | – | 22.2 ± 0.2% | 25.3 ± 4.1% | – | – | –
3 | O=C(Nc1ccc(OCC(F)(F)F)nc1)N1CCCCCCC1 [RU-0275323, FC(F)(F)COC1=NC=C(NC(=O)N2CCCCCCC2)C=C1] | 88.4 | 51.1 | 45.1% | 87.5 ± 8% | 49.4 ± 7.1% | 13 µM | 45.0537% | 111 | 112 | < 0.0391 µM | 111 ± 5.5% | 112 ± 10.6% | 15.8% | > 20 µM | – | – | – | – | –
4 | COc1ccc(Cl)c(NS(=O)(=O)c2cnc(Cl)n2C)c1 [RU-0278036, COC1=CC(NS(=O)(=O)C2=CN=C(Cl)N2C)=C(Cl)C=C1] | – | – | 48.8% | 87.6 ± 8% | 50 ± 7.7% | – | – | – | – | – | 75.9 ± 12.9% | 152 ± 19.9% | – | – | 23.9 ± 12.9% | 61.5 ± 2.6% | – | – | –
5 | CO[C@H]1/C=C/O[C@@]2(C)Oc3c(C)c(O)c4c(O)c(c(/C=N/N5CCN(C)CC5)c(O)c4c3C2=O)NC(=O)/C(C)=C\C=C\[C@H](C)[C@H](O)[C@@H](C)[C@@H](O)[C@@H](C)[C@H](OC(C)=O)[C@@H]1C [Rif, rifampicin, reference compound] | – | – | – | – | – | – | – | – | – | – | – | – | – | – | – | – | 8.618% | 10.744% | 10.4241% and 10.7119% and 11.5524% and 10.2878%

— PMC8351955, “Targeting Mycobacterium tuberculosis response to environmental cues for the development of effective antitubercular drugs” (PLoS Biology, 2021)
